Measurements taken from patent US11026875B2, “Skin restoration product” (Givaudan SA, priority 2016, dated 2021).

System: normal human dermal fibroblasts (NHFs)
Experiment: N-sulfated GAG (heparan sulfate) synthesis (production + liberation) by normal human dermal fibroblasts
Type: cell-based
Settings: 72 h, cells pellets + supernatants, reported to total proteins, composition at 1 mM
Description: The composition was applied at 0.5 and 1 mM to normal human dermal fibroblasts (NHFs) over a period of 72 hours. Normal human fibroblasts (NHFs), were isolated from the skin dermis of Caucasian women donors (plastic surgery). Cells were seeded at 80 000 fibroblasts/well in 24-wells plates and were left to adhere for 24 hours at 37° C./5% CO2 in complete DMEM (Dulbecco's Modified Eagle Medium) (with antibiotics and FBS, fetal bovine serum).
The cells were then treated with the composition in non-supplemented medium (without FBS) for 72 hours and incubated at 37° C./5% CO2, and then total sGAG (sulfated Glycosaminoglycans) and HS (Heparan sulfate, or N-sulfated GAG) were dosed in culture supernatants and cells pellets (total proteins were dosed in cells pellets). Each product concentration was tested in duplicate. Furthermore, dosages were reported as a proportion of total amount of proteins. At the end of treatment, supernatants were collected. Cells were lysed in a papain containing buffer (Papaya latex Sigma P3125). Cells extracts were collected and centrifuged. Supernatants and cells pellets were dosed for sGAG, HS, or total proteins.
sGAG and HS dosage principles: Total sulfated GAG (sGAG), were dosed using the Blyscan™ sGAG Assay kit (Biocolor B1000 or B3000). The Blyscan™ assay is a quantitative dye-binding method for the analysis of sulfated proteoglycans and glycosaminoglycans (sGAG). The dye label used in the assay is 1,9-dimethylmethylene blue and the dye is employed under conditions that provide a specific label for the sulfated polysaccharide component of proteoglycans or the protein free sulfated glycosaminoglycan chains. The method consists of adding a specific blue dye reagent to an aliquot of supernatants or cells pellets which makes sGAG precipitate (a complex dye-sGAG is formed and precipitates out from the soluble unbound dye).
Centrifugation permitted the collection of a pellet of precipitate at the tube bottom. After having carefully drained the dye, the pellet was solubilized in a dissociation reagent (5-10% Sodium dodecyl sulphate). Absorbance was read at 656 nm in duplicate, in a 96-wells microplate. […] After this reaction, O-sGAG level can be measured using the protocol as normal, and N-sulfated content was subsequently calculated from the difference between the total sGAG value (determined earlier) and the O-sGAG content.
Total proteins dosage principle: Total proteins dosage in cells pellets was performed in parallel by colorimetric method based on bicinchoninic acid (BCA). […] The amount of reduction and of BCA-Cu^+ complex is proportional to the protein concentration present and is quantified by spectrophotometric lecture at 570 nm. […]

In the case of “TGF beta: transforming growth factor beta, used as positive control”, the “N-sulfated GAG synthesis improvement” value (donor one fibroblasts) is reported as “+43%”, the “N-sulfated GAG synthesis improvement” value (donor one fibroblasts, listed as TGFβ) is reported as “+43%” and the “N-sulfated GAG synthesis improvement” value (donor two fibroblasts) is reported as “+24%”. For the same substance, the “N-sulfated GAG synthesis improvement” value (donor two fibroblasts, listed as TGFβ) was “+24%”.
